“Also recorded” adds a separate entry of the source.
Experiments:
[1] = tested on: human APP and β-secretase co-expressed in HEK 293T cells; assay: HEK 293T cells co-expressing APP and β-secretase (BACE1): Aβ ELISA and β-CTF Western blot; type: cell-based; conditions: APP and β-secretase co-expressed, ELISA, vs GFP control
Protocol: The experiment was performed according to the standard procedure in the ELISA analysis kit of Invitrogen Company. • a) The target protein was expressed in HEK 293T cell line. Cells were subcultured one day before transfection, and transfection was performed when the degree of cell adhesion reached 70%-80%. The transfection reagent was lipofectamine2000 (ThermoFisher). • b) 4-6 hours post transfection, medium were replaced with fresh cell culture medium. • c) 36-48 hours post transfection, the cell culture medium was collected, and then the ELISA process was performed or the cell culture medium was frozen in a −80° C. refrigerator. • d) 50 μl of standard samples and experimental samples were added to each well of the 96-well plate. • e) 50 μl of human-derived Aβ40 or Aβ42 or mouse-derived Aβ40 detection antibody was added to each well of the 96-well plate. • f) The above samples were shaken gently and placed at room temperature for 3 hours. • g) The liquid in the well were removed, and the plate was washed 4 times with 1× wash buffer. • h) 100 μl of the buffer containing 1× anti-Rabbit IgG HRP was added. • i) The plate was shaken gently and placed at room temperature for […]. • j) The liquid in the well were removed, and the well was washed 4 times with 1× wash buffer. • k) 100 μl of Stabilized Chromogen was added to each well, and the plate was placed in the dark for 30 minutes at room temperature. • l) 100 μl of Stop Solution was added to each well. • m) The absorbance at 450 nm was measured with a microplate reader. 2.4 qRT-PCR
48 hours after transfection of HEK 293T cells and N2A cells, or 4.5 days after lentivirus infection of neurons, media and lysates were collected. Aβ40 and Aβ42 in the culture medium and cell lysates were detected by an Aβ ELISA kit as indicated in the protocol. (Invitrogen Technology; KHB3481 for human Aβ40, KHB3441 for human Aβ42 and KMB3481 for mouse Aβ40).
(§1) Data were analyzed by GraphPad Prism software (v6) using unpaired, paired, or one-sample t-tests. Aβ40 and Aβ42 levels were normalized to the corresponding GFP controls. α-CTF levels were normalized to FL-APP and corresponding GFP controls. All data are represented as mean±SEM. Statistical significance was defined as p<0.05. One, two, three and four stars (*) in the graph indicate p-values <0.05, <0.01, <0.001 and <0.0001, respectively.

[2] = tested on: APP co-expressed in mouse neuron cell line N2A; assay: α-CTF produced by APP co-expressed in N2A cells (Western blot); type: cell-based; conditions: Western blot, vs GFP control
Protocol: Plasmids were transfected in HEK 293T or N2A cells for 36-48 hours and then lysed in cell lysis buffer [10% 1M tris-HCl (pH=6.8), 4% SDS, 20% glycerol, 0.01% bromophenol blue]. Lysates were shaken at room temperature for 10 min, then boiled for 10 min, and centrifuged at 12,000×g for 10 min. Proteins were run on 8% or 12% Tris-glycine SDS-PAGE and transferred to PVDF membranes (Life Technologies). Samples were incubated overnight at 4° C. with primary antibody diluted in 5% BSA buffer (in 1×TBST). After washing 3 times with 1×TBST, they were incubated with secondary antibody diluted in 5% BSA buffer (in 1×TBST) for 2 hours at room temperature. Finally, after washing 3 times with 1×TBST, the signal was detected by ECL Western blotting substrate (Solarbio, PE0010).
as §1

[3] = tested on: γ-secretase (PS1, PS2) knockout HEK 293T cells; assay: PS1 KO, PS2 KO and PS1/2 dKO HEK 293T cell lines: α-CTF and Aβ40; type: cell-based, human; conditions: PS1 and PS2 double knockout HEK 293T cells
Protocol: • a) A plasmid expressing the target protein in mammalian cells was constructed, and the protein expression promoter is CAG. • b) The target protein was expressed in HEK 293T cell line. Cells were subcultured one day before transfection, and transfection was performed when the degree of cell adhesion reached 70%-80%. The transfection reagent was lipofectamine2000 (ThermoFisher). • c) 4-6 hours post transfection, the medium were replaced with fresh cell culture medium. • d) 36-48 hours post transfection, the cells were lysed (10% 1M tris-HCl (pH=6.8), 4% SDS, 20% glycerol, 0.01% bromophenol blue), and the protein samples were collected and used for Western blot or stored in a −80° C. freezer. • e) Polyacrylamide gel electrophoresis. Before protein loading, the protein was boiled at 98° C. for 10 min, and then centrifuged at 12000 rpm for 10 min. Electrophoresis: 80V for the upper stacking gel; 120V for the lower separating gel. • f) Protein transfer. […]

[4] = Stability of ApoE2 in conditioned culture medium (Western blot); type: physicochemical; conditions: 37° C.; 48 hours
Protocol: N=9. […] The original ApoE2-containing culture medium (lane 1), the ApoE2-containing culture medium after incubation with untransfected cells for 48 hours (lane 2), and the ApoE2-containing culture medium separately stored in a 37° C. incubator for 48 hours (lane 3). […] DAPI, nuclear marker. […] MAP2, marker of mature neurons; DAPI, nuclear marker.

ApoE2: human apolipoprotein E2, full-length 299 amino acid residues, SEQ ID NO: 12
production of Aβ40 [1]: significantly reduces production of Aβ40; also recorded: is reduced; also recorded: significantly reduced Aβ40 levels | α-CTF produced by co-expressed APP [2]: significantly increased the α-CTF levels | α-CTF in PS1/2 dKO cells [3]: did not further increase α-CTF levels | stability in conditioned medium [4]: can exist stably

— US20250108100A1, “C-TERMINAL FRAGMENT OF APOLIPOPROTEIN E AND APPLICATION THEREOF IN INHIBITING y-SECRETASE ACTIVITY” (SYNPHATEC (SHANGHAI) BIOPHARMACEUTICAL TECHNOLOGY CO., LTD., priority 2022, published 2025)
